This test concerns the target T1, AXL (human catalytic domain) (Homo sapiens, UniProt P30530).
T1 construct: purchased Upstate Ltd. 14-512
T1 sequence (P30530 473-894): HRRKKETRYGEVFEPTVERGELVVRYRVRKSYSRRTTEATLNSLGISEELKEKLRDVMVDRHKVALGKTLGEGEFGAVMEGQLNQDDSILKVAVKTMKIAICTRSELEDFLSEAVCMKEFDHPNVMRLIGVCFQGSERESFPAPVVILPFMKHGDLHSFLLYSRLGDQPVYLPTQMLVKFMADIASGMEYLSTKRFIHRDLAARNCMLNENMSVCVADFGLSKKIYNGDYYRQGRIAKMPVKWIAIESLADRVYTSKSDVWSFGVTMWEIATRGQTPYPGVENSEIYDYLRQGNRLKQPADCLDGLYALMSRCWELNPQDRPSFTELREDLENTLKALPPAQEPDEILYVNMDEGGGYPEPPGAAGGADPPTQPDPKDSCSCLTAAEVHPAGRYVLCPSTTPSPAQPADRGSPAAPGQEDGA
As to the kind of experiment: AXL (human catalytic domain) Enzyme Activity Assay (IMAP fluorescence polarisation). In kind it is biochemical. The method, boiled down:
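IMAP FP readout (Ex485/Em535, after overnight binding) measured inhibition of the human AXL catalytic domain (aa473-894, 15 nM final) acting on 100 nM 5FAM-CSK-tide at 150 μM ATP, equal to KM. Reactions ran 60 min at room temperature in pH 7.0 HEPES buffer; IC50 from 10-point curves.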

[1] abbreviates: first data set, recombinant AXL isoform 1 aa473-894, 150 μM ATP.
Setting [2] is: further data set (WW-001 through WW-169, XX-001 through XX-469, YY-001 through YY-016, ZZ-001 through ZZ-003), 150 μM ATP.

Where “and” joins values, the source holds several entries; their conditions need not be identical. Equal values may be shown once.

As to `O=C(Nc1nc2cccc(-c3ccn[nH]3)n2n1)C1CC1` [WW-053], the IC50 lay within 1000 to 10000 nM under setting [1] and 1000 to 10000 nM under setting [2].
As for `Cn1cnnc1SCCn1cc(-c2cccc3nc(Nc4ccc(OCCN5CCCC5)cc4)nn23)cn1` [XX-429], the 50% inhibitory concentration (IC50) under setting [2] was in the range of 100 to 1000 nM.
For `COc1ccc(-c2cccc3nc(Nc4ccc(OCCNCc5ccccc5)cc4)nn23)cc1`, the IC50 runs as follows: under setting [1], < 1000 nM and 114 nM; under setting [2], 1000 to 10000 nM.
For the molecule `c1cc(-c2ccc3c(c2)OCCO3)n2nc(Nc3ccc(OCCN4CCCC4)cc3)nc2c1` [XX-018], the IC50 is, setting by setting: under setting [1], less than 1000 nM; under setting [2], 100 to 1000 nM.
Turning to `Fc1cc(Nc2nc3cccc(-c4ccc5c(c4)OCCO5)n3n2)ccc1OCCN1CCCC1` [XX-133], the IC50 under setting [2] was not above 100 nM.
The same measure, in the same setting: in the case of `CS(=O)(=O)c1cccc(-c2cccc3nc(Nc4ccc(OCCN5CCCC5)cc4)nn23)c1` [XX-283] it was 100 to 1000 nM; in that of `Fc1ccccc1CNc1cccc(-c2cccc3nc(Nc4ccc(OCCN5CCCC5)cc4)nn23)c1` [XX-238], 100 to 1000 nM.
For the molecule `CNCCOc1ccc(Nc2nc3cccc(-c4ccc5c(c4)OCO5)n3n2)cc1` [XX-049], the IC50 was less than 1000 nM under setting [1] and 100 to 1000 nM under setting [2].
As for `COc1ccc(-c2cccc3nc(NC(=O)C4CCC4)nn23)cc1` [WW-042], the 50% inhibitory concentration (IC50) under setting [1] was in the range of 1000 to 10000 nM and the IC50 under setting [2] is 1000 to 10000 nM.
As to `c1ccc2oc(-c3cccc4nc(Nc5ccc(OCCN6CCCC6)cc5)nn34)cc2c1` [XX-293], under setting [2], the IC50 lay in the range of 100 to 1000 nM.
`O=C(CN1CCCCC1)Nc1cccc(Nc2nc3cccc(-c4ccc5c(c4)OCCO5)n3n2)c1` [XX-121]: the IC50 under setting [2] fell in the range of 100 to 1000 nM.
Consider `O=C(Nc1nc2cccc(-c3ccc4ncccc4c3)n2n1)C1CC1` [WW-092], for which the half-maximal inhibitory concentration (IC50) by setting is: under setting [1], less than 1000 nM; under setting [2], 100 to 1000 nM.
For the molecule `O=C(NCc1ccc(Cl)cc1)c1cccc(-c2cccc3nc(Nc4ccc(OCCN5CCCC5)cc4)nn23)c1` [XX-462, N-(4-Chloro-benzyl)-3-{2-[4-(2-pyrrolidin-1-yl-ethoxy)-phenylamino]-[1,2,4]triazolo[1,5-a]pyridin-5-yl}-benzamide], the IC50 under setting [2] was in the range of 1000 to 10000 nM.
The same measure, in the same setting: the value for `CCCCCS(=O)(=O)n1cc(-c2cccc3nc(Nc4ccc(OCCN5CCCC5)cc4)nn23)cn1` [XX-384] was 100 to 1000 nM; that for `O=C(CSc1ccc(Nc2nc3cccc(-c4ccc5c(c4)OCCO5)n3n2)cc1)N1CCCC1` [XX-160] was 1000 to 10000 nM.
As for `O=C(Nc1nc2cccc(-c3ccc(CO)cc3)n2n1)C1CC1` [WW-027], the IC50 runs as follows: under setting [1], 1000 to 10000 nM; under setting [2], 1000 to 10000 nM.
For the molecule `Cc1cccc(-c2cccc3nc(Nc4ccc(OCCN5CCCC5)cc4)nn23)c1` [XX-213], the IC50 under setting [2] lay in the range of 100 to 1000 nM.
On the same count and under the same terms, the value for `c1cc(-c2ccc3cc[nH]c3c2)n2nc(Nc3ccc(OCCCN4CCCCC4)cc3)nc2c1` [XX-347] was 100 to 1000 nM.
As for `Cn1cc(-c2cccc3nc(Nc4ccc(OCCN5CCCC5)cc4)nn23)cn1` [XX-017], the IC50 runs as follows: under setting [1], less than 1000 nM; under setting [2], 100 to 1000 nM.
For `CCN(CC)CCOc1cccc(Nc2nc3cccc(-c4ccc5c(c4)OCCO5)n3n2)c1` [XX-076], in that order: less than 1000 nM and not above 100 nM.
The molecule `c1cc(NC2CCCC2)n2nc(Nc3ccc(OCCN4CCCC4)cc3)nc2c1` [XX-152, N*5*-Cyclopentyl-N*2*-[4-(2-pyrrolidin-1-yl-ethoxy)-phenyl]-[1,2,4]triazolo[1,5-a]pyridine-2,5-diamine] gave an IC50 under setting [2] of 1000 to 10000 nM.
Consider `O=C(Nc1nc2cccc(Nc3cccc(Cl)c3)n2n1)C1CC1` [WW-129], for which the IC50 by setting is: under setting [1], 1000 to 10000 nM; under setting [2], 1000 to 10000 nM.
As for `c1cc(NCCCN2CCCC2)cc(Nc2nc3cccc(-c4ccc5c(c4)OCCO5)n3n2)c1` [XX-117], the IC50 under setting [2] is 100 to 1000 nM.
Same read-out and setting: in the case of `CC(C(=O)Nc1cccc(-c2cccc3nc(Nc4ccc(OCCN5CCCC5)cc4)nn23)c1)c1cccc(Cl)c1` (stereo not shown) [XX-228] it was 1000 to 10000 nM.
Still for that read-out and setting: in the case of `CN(C)c1ccc(-c2cccc3nc(Nc4ccc(OCCN5CCCC5)cc4)nn23)cn1` [XX-198] it was 100 to 1000 nM; in that of `c1cc(-c2ccc3c(c2)OCCO3)n2nc(Nc3ccc(OCCN4CCCC4)nc3)nc2c1` [XX-102], 100 to 1000 nM.
Turning to `CC(C)Cn1cc(-c2cccc3nc(NC(=O)C4CC4)nn23)cn1` [WW-108], the IC50 lay within 1000 to 10000 nM under setting [1] and 1000 to 10000 nM under setting [2].
As for `CC(C)(C)CNC(=O)Cn1cc(-c2cccc3nc(Nc4ccc(OCCN5CCCC5)cc4)nn23)cn1` [XX-092, N-(2,2-Dimethyl-propyl)-2-(4-{2-[4-(2-pyrrolidin-1-yl-ethoxy)-phenylamino]-[1,2,4]triazolo[1,5-a]pyridin-5-yl}-pyrazol-1-yl)-acetamide], the IC50 under setting [2] lay within 1000 to 10000 nM.
Consider `CC(=O)Nc1ccc(-c2cccc3nc(NC(=O)C4CC4)nn23)cc1` [WW-068], for which the IC50 reads like this: under setting [1], 1000 to 10000 nM; under setting [2], 1000 to 10000 nM.
As to `COCCNCCOc1ccc(Nc2nc3cccc(-c4ccc(OC)cc4)n3n2)cc1` [XX-031], the IC50 is less than 1000 nM under setting [1] and 100 to 1000 nM under setting [2].
Regarding `FC(F)(F)c1ccc(-c2cccc3nc(Nc4ccc(OCCN5CCCC5)cc4)nn23)cc1` [XX-218], the IC50 under setting [2] is 100 to 1000 nM.
`C[C@H](CN(C)C)Oc1ccc(Nc2nc3cccc(-c4ccc5c(c4)OCCO5)n3n2)cc1` [XX-155] had an IC50 under setting [2] of 100 to 1000 nM.
The same measure, in the same setting: the value for `CCCCS(=O)(=O)NCc1cccc(-c2cccc3nc(Nc4ccc(OCCN5CCCC5)cc4)nn23)c1` [XX-324, Butane-1-sulfonic acid 3-{2-[4-(2-pyrrolidin-1-yl-ethoxy)-phenylamino]-[1,2,4]triazolo[1,5-a]pyridin-5-yl}-benzylamide] was 1000 to 10000 nM; that for `Cc1ccc(CNc2cccc(-c3cccc4nc(Nc5ccc(OCCN6CCCC6)cc5)nn34)c2)o1` [XX-395] was 100 to 1000 nM; that for `Cc1ccc(-c2nccc3nc(Nc4ccc(OCCN5CCCC5)cc4)nn23)cc1F` [YY-014] was not above 100 nM.
Same read-out and setting: in the case of `Cc1ccc(-c2nnc(COc3cccc(-c4cccc5nc(Nc6ccc(OCCN7CCCC7)cc6)nn45)c3)o2)cc1` [XX-406] it was 1000 to 10000 nM; in that of `CCC(CC)Cn1cc(-c2cccc3nc(Nc4ccc(OCCN5CCCC5)cc4)nn23)cn1` [XX-319], not above 100 nM.
`CCN(CC)CCNS(=O)(=O)c1ccc(Nc2nc3cccc(-c4ccc5c(c4)OCCO5)n3n2)cc1` [XX-173] came in with an IC50 under setting [2] of 100 to 1000 nM.
Still for that read-out and setting: in the case of `Fc1cccc(Cn2cc(-c3cccc4nc(Nc5ccc(OCCN6CCCC6)cc5)nn34)cn2)c1` [XX-367] it was 100 to 1000 nM.
In the case of `O=C(Nc1nc2cccc(-c3ccc(-n4cccn4)cc3)n2n1)C1CC1` [WW-109], the IC50 reads like this: under setting [1], 1000 to 10000 nM; under setting [2], 1000 to 10000 nM.
`COc1ccc(-c2cccc3nc(Nc4ccc(OCCCN5C(=O)c6ccccc6C5=O)cc4)nn23)cc1` [XX-039, 2-(3-{4-[5-(4-methoxy-phenyl)-[1,2,4]triazolo[1,5-a]pyridin-2-ylamino]-phenoxy}-propyl)-isoindole-1,3-dione]: the IC50 under setting [2] lay within 100 to 1000 nM.
Still for that read-out and setting: the value for `CC(Oc1cccc(-c2cccc3nc(Nc4ccc(OCCN5CCCC5)cc4)nn23)c1)C(=O)Nc1ccccc1` (stereo not shown) [XX-403] was 100 to 1000 nM; that for `Nc1ccc(-c2cccc3nc(Nc4ccc(OCCN5CCCC5)cc4)nn23)cc1` [XX-184] was 100 to 1000 nM; that for `Cc1ccc(-c2cccc3nc(Nc4ccc(OCCN5CCCC5)cc4)nn23)cc1C` [XX-279] was 100 to 1000 nM.
The same measure, in the same setting: in the case of `NCCNS(=O)(=O)c1ccc(Nc2nc3cccc(-c4ccc5c(c4)OCCO5)n3n2)cc1` [XX-144] it was 100 to 1000 nM; in that of `c1cc(-c2cnn(CC3CCCCC3)c2)n2nc(Nc3ccc(OCCN4CCCC4)cc3)nc2c1` [XX-356], 100 to 1000 nM; in that of `CC(C)CCn1cc(-c2cccc3nc(Nc4ccc(OCCN5CCCC5)cc4)nn23)cn1` [XX-353], not above 100 nM.
Under setting [2], `COc1ccc(OC)c(-c2cccc3nc(Nc4ccc(OCCN5CCCC5)cc4)nn23)c1` [XX-333] yielded an IC50 of 1000 to 10000 nM.
Under setting [2], `c1coc(-c2ccc(-c3cccc4nc(Nc5ccc(OCCN6CCCC6)cc5)nn34)cc2)c1` [XX-188] showed an IC50 of 100 to 1000 nM.
As for `O=C(Nc1nc2cccc(NCCc3c[nH]c4ccccc34)n2n1)C1CC1` [WW-077], the half-inhibitory concentration (IC50) lay within 1000 to 10000 nM under setting [1] and 1000 to 10000 nM under setting [2].
Consider `c1cc(-c2cnn(CC3CCCO3)c2)n2nc(Nc3ccc(OCCN4CCCC4)cc3)nc2c1` (stereo not shown) [XX-344], for which, under setting [2], the IC50 lay within 100 to 1000 nM.
With `COc1ccc(-c2cccc3nc(Nc4ccc(OCCNCCO)cc4)nn23)cc1` [XX-026], the IC50 by setting is: under setting [1], less than 1000 nM; under setting [2], 100 to 1000 nM.
As for `C[C@H](CN)Oc1ccc(Nc2nc3cccc(-c4ccc5c(c4)OCCO5)n3n2)cc1` [XX-142], the IC50 under setting [2] is 100 to 1000 nM.
Take `COc1ccc(-c2cccc3nc(Nc4cccc(C(=O)NCCN(C)C)c4)nn23)cc1` [XX-037]: the IC50 is less than 1000 nM under setting [1] and not above 100 nM under setting [2].
On to `CC(=O)Nc1ccc(-c2cccc3nc(Nc4ccc(OCCN5CCCC5)cc4)nn23)cc1` [XX-205], for which the IC50 under setting [2] was 100 to 1000 nM.
Same read-out and setting: the value for `OCc1ccc(-c2cccc3nc(Nc4ccc(OCCN5CCCC5)cc4)nn23)cc1` [XX-237] was 100 to 1000 nM.
As for `COc1cc(Nc2nc3cccc(-c4ccc5c(c4)OCCO5)n3n2)ccc1OCCN1CCCC1` [XX-001], the IC50 runs as follows: under setting [1], less than 1000 nM; under setting [2], not above 100 nM.
Consider `COc1ccc(-c2cccc3nc(Nc4ccc(OC)nc4)nn23)cc1` [XX-010], for which the IC50 under setting [1] is 1000 to 10000 nM.

For the origin of these results see US8431596B2 (Cancer Research Technology Limited, priority 2007, dated 2013).
